Legend:
Conditions in all cases: banded MIC grade
A. fumigatus 210 [1] = test: Minimum inhibitory concentration, RPMI medium; type: cell-based
In short: (§1)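 Broth microdilution in RPMI 1640 (2% glucose, 0.135 M MOPS, pH 7.0) at 1-2×10^4 cfu/mL, testing 50-0.05 mg/L in doubling steps. After 24-48 hrs at 35° C, OD at 485 nm was read, and the MIC was taken as the lowest drug level suppressing growth by >80% relative to drug-free wells.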

A. fumigatus = test: Minimum inhibitory concentration, RPMI medium; type: cell-based
In short: as §1

A. terreus 49 [2] = test: Minimum inhibitory concentration, YAG medium; type: cell-based, Aspergillus terreus
In short: (§2)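 Twofold aqueous dilution series, prepared from a DMSO stock (5 mg/mL), were inoculated with Aspergillus spp. spores; incubation lasted 24 hrs at 35° C before OD 485 nm readings.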

A. fumigatus 210 [3] = test: Minimum inhibitory concentration, YAG medium; type: cell-based, Aspergillus fumigatus
In short: (§3)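 Growth was read as optical density at 485 nm after 24 hrs at 35° C, and the MIC taken as the lowest drug concentration cutting growth by >70% relative to drug-free wells. Plates held doubling dilutions (50-0.05 mg/L) with 1-2×10^4 cfu/mL spores in YAG medium.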

Aspergillus fumigatus = test: Minimum inhibitory concentration, YAG medium; type: cell-based
In short: as §3

Aspergillus niger = test: Minimum inhibitory concentration, YAG medium; type: cell-based
In short: as §2

Aspergillus flavus = test: Minimum inhibitory concentration, YAG medium; type: cell-based
In short: as §2

Aspergillus terreus = test: Minimum inhibitory concentration, YAG medium; type: cell-based
In short: as §2

A. terreus = test: Minimum inhibitory concentration, RPMI medium; type: cell-based
In short: (§4)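 Incubated at 35° C for 24-48 hrs in RPMI 1640 with twofold water dilutions of compound (from 5 mg/mL stock in DMSO); absorbance at 485 nm indicated growth.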

A. terreus 49 [4] = test: Minimum inhibitory concentration, RPMI medium; type: cell-based
In short: as §4

C. albicans = test: Minimum inhibitory concentration, RPMI medium; type: cell-based
In short: as §4

A. flavus = test: Minimum inhibitory concentration, RPMI medium; type: cell-based
In short: as §4

C. tropicalis = test: Minimum inhibitory concentration, RPMI medium; type: cell-based
In short: as §4

C. glabrata = test: Minimum inhibitory concentration, RPMI medium; type: cell-based
In short: as §4

C. parapsilosis = test: Minimum inhibitory concentration, RPMI medium; type: cell-based
In short: as §4

A. niger = test: Minimum inhibitory concentration, RPMI medium; type: cell-based
In short: as §4

C. krusei = test: Minimum inhibitory concentration, RPMI medium; type: cell-based
In short: as §4

Structure (SMILES)	MIC grade, A. FUMIGATUS 210, RPMI media (A. fumigatus 210 [1])	MIC grade, A. FUMIGATUS, RPMI media (A. fumigatus)	MIC grade, A. TERREUS 49, YAG media (A. terreus 49 [2])	MIC grade, A. FUMIGATUS 210, YAG media (A. fumigatus 210 [3])	MIC grade, A. FUMIGATUS, YAG media (Aspergillus fumigatus)	MIC grade, A. NIGER, YAG media (Aspergillus niger)	MIC grade, A. FLAVUS, YAG media (Aspergillus flavus)	MIC grade, A. TERREUS, YAG media (Aspergillus terreus)	MIC grade, A. TERREUS, RPMI media (A. terreus)	MIC grade, A. TERREUS 49, RPMI media (A. terreus 49 [4])	MIC grade, C. ALBICANS, RPMI media (C. albicans)	MIC grade, A. FLAVUS, RPMI media (A. flavus)	MIC grade, C. TROPICALIS, RPMI media (C. tropicalis)	MIC grade, C. GLABRATA, RPMI media (C. glabrata)	MIC grade, C. PARAPSILOSIS, RPMI media (C. parapsilosis)	MIC grade, A. NIGER, RPMI media (A. niger)	MIC grade, C. KRUSEI, RPMI media (C. krusei)
Cc1cc(COCCCCC2=NN=C(N)SC2)ccc1F	2 (2: 5-20 mg/L)	4 (4: <1 mg/L)	4 (4: <0.2 mg/L)	4 (4: <0.2 mg/L)	4 (4: <0.2 mg/L)	4 (4: <0.2 mg/L)	4 (4: <0.2 mg/L)	4 (4: <0.2 mg/L)	3 (3: 1-5 mg/L)	3 (3: 1-5 mg/L)	4 (4: <1 mg/L)	4 (4: <1 mg/L)	4 (4: <1 mg/L)	3 (3: 1-5 mg/L)	4 (4: <1 mg/L)	3 (3: 1-5 mg/L)	4 (4: <1 mg/L)
NC1=NN=C(CCCCOCc2ccc(F)cc2)CS1	1 (1: ≥20 mg/L)	1 (1: ≥20 mg/L)	2 (2: 1-5 mg/L)	2 (2: 1-5 mg/L)	2 (2: 1-5 mg/L)	2 (2: 1-5 mg/L)	2 (2: 1-5 mg/L)	2 (2: 1-5 mg/L)	1 (1: ≥20 mg/L)	1 (1: ≥20 mg/L)	2 (2: 5-20 mg/L)	1 (1: ≥20 mg/L)	2 (2: 5-20 mg/L)	2 (2: 5-20 mg/L)	2 (2: 5-20 mg/L)	1 (1: ≥20 mg/L)	2 (2: 5-20 mg/L)
COc1ccc(COCCCCC2=NN=C(N)SC2)cc1	1 (1: ≥20 mg/L)	1 (1: ≥20 mg/L)	2 (2: 1-5 mg/L)	2 (2: 1-5 mg/L)	2 (2: 1-5 mg/L)	2 (2: 1-5 mg/L)	2 (2: 1-5 mg/L)	2 (2: 1-5 mg/L)	1 (1: ≥20 mg/L)	1 (1: ≥20 mg/L)	2 (2: 5-20 mg/L)	1 (1: ≥20 mg/L)	2 (2: 5-20 mg/L)	2 (2: 5-20 mg/L)	2 (2: 5-20 mg/L)	1 (1: ≥20 mg/L)	2 (2: 5-20 mg/L)
Cc1cccc(COCCCCC2=NN=C(N)SC2)c1	2 (2: 5-20 mg/L)	3 (3: 1-5 mg/L)	3 (3: 0.2-1 mg/L)	3 (3: 0.2-1 mg/L)	3 (3: 0.2-1 mg/L)	3 (3: 0.2-1 mg/L)	3 (3: 0.2-1 mg/L)	3 (3: 0.2-1 mg/L)	2 (2: 5-20 mg/L)	2 (2: 5-20 mg/L)	3 (3: 1-5 mg/L)	3 (3: 1-5 mg/L)	3 (3: 1-5 mg/L)	2 (2: 5-20 mg/L)	3 (3: 1-5 mg/L)	2 (2: 5-20 mg/L)	3 (3: 1-5 mg/L)

— US20180201592A1, “2-AMINO-1,3,4-THIADIAZINE AND 2-AMINO-1,3,4-OXADIAZINE BASED ANTIFUNGAL AGENTS” (F2G Limited, priority 2015, published 2018)
